Our source for the EC50 and IC50 values is US9216995B2, “Pyridone derivative having integrase inhibitory activity” (SHIONOGI & CO., LTD., priority 2010, dated 2015).

One assay deals with HIV. Kind of assay: Anti-HIV activity (HeLa-CD4 cells, β-gal reporter assay). In kind it is cell-based. The conditions noted are these: Human immunodeficiency virus 1, 72 h, concentration to inhibit HIV infection by 50%, 3 days, luminescence. The protocol: A HeLa-CD4 cell suspension (2.5×10^4 cell/well) was dispensed to each well on an assay plate. After incubating at 37° C. for 1 hour under condition of 5% CO2, a solution to dilute a compound (50 μL) was added to each well (provided that a cell control was excluded). A culture solution (50 μL) was added to a well of the cell control. The plate was incubated at 37° C. for 3 days under condition of 5% CO2.
After the culture solution was aspirated from each well, 100 μL of a cell lysate of the reporter assay kit—β gal—was added to all wells, and then the plate was frozen at −80° C. to completely lyse cells. The plate was left at room temperature to unfreeze the cell lysate, it was centrifuged at 1200 rpm for 5 minutes at room temperature (Kubota centrifuge KR-600P). 20 μL of the supernatant was dispensed from each well to 96-well black plate, 100 μL of a luminescent reagent of the reporter assay kit—β gal—was added to each well. The plate was incubated at room temperature for 1 hour. The luminescence intensity from each well was measured by MicroBeta TRILUX instrument (PerkinElmer). A concentration (conc.) to inhibit HIV infection by 50% was calculated to obtain an EC50 value.

Another assay deals with HIV integrase (Human immunodeficiency virus type 1 group M subtype B, UniProt P04585). Kind of assay: Integrase inhibitory activity (strand transfer ELISA on streptavidin plates). In kind it is biochemical. As to conditions: integrase inhibition rate, absorbance OD 405 nm. The protocol: By the same method as that described in Experimental Example 1 of Patent Document 2, a substrate DNA solution (2 μmol/μl) and a target DNA solution (5 μmol/μl) were prepared. […] Each sequence of a substrate DNA and a target DNA is as described in the same Experimental Example.
(2) Measurement of Inhibition Rate (IC50 Value)
Onto Immobilizer—Streptavidin Plates (manufactured by NUNC) was added 50 μl of a substrate DNA solution (2 μmol/μl). After adsorbing at room temperature for 60 minutes under shaking, it was washed with a phosphate buffer two times.
Then, to each well prepared as described above were added 12 μl of a buffer (composition: 150 mM MOPS (pH7.2), 75 mM MnCl2, 50 mM 2-mercaptoethanol, 25% glycerol, 500 μg/ml bovine serum albumin-fraction V), and 51 μl of a reaction solution prepared from 39 μl of distilled water. Then, 9 μl of an integrase solution (30 μmol) was added, and the mixture was mixed well. To a well as a negative control (NC) was added 9 μl of a diluting solution (composition: 20 mM MOPS (pH 7.2), 400 mM potassium glutamate, 1 mM EDTA, 0.1% NP-40, 20% glycerol, 1 mM DTT, 4 M urea), and this was mixed well using a plate mixer.
After the plate was incubated at 30° C. for 60 minutes, the reaction solution was discarded, followed by washing with 200 μl of a washing buffer (composition: 150 mM MOPS (pH 7.2), 50 mM 2-mercaptoethanol, 25% glycerol, 500 μg/ml bovine serum albumin-fraction V) three times.
Then, to each well were added 12 μl of a buffer (composition: 150 mM MOPS (pH 7.2), 75 mM MgCl2, 50 mM 2-mercaptoethanol, 25% glycerol, 500 μg/ml bovine serum albumin-fraction V), and 53 μl of a reaction solution prepared from 41 μl of distilled water. Further, 6 μl of a solution of a test compound in DMSO was added to each well, and 6 μl of DMSO was added to a well as a positive control (PC), followed by mixing well using a plate mixer. After the plate was incubated at 30° C. for 60 minutes, 1 μl of a target DNA (5 μmol/μl) was added, and this was mixed well using a plate mixer.
After each plate was incubated at 30° C. for 10 minutes, the reaction solution was discarded, followed by washing with a phosphate buffer two times. Then, an anti-digoxigenin antibody labeled with alkaline phosphatase (sheep Fab fragment: manufactured by Boehringer) was diluted 2000-fold with an antibody diluting solution, 100 μl of the diluent was added to bind at 30° C. for 1 hour, and this was washed successively with a phosphate buffer containing 0.05% Tween 20 two times, and a phosphate buffer two times. […]
C abs.: Absorbance of well of compound
NC abs.: Absorbance of NC
PC abs.: Absorbance of PC
In general terms: An ELISA detects its analyte on a solid surface through an enzyme-linked reagent.

For orientation: EC50 means the concentration needed to bring the measured effect to its halfway point. Higher therefore signals a less potent agent. For the compound `C[C@@H]1CCO[C@H]2Cn3cc(C(=O)NC[C@@H]4CCCO4)c(=O)c(O)c3C(=O)N12` [Compound A-21], in the assay with HIV, the half-maximal effective concentration (EC50) amounted to 25 nM.

As to `C[C@@H]1CCO[C@H]2Cn3cc(C(=O)NCc4nc5ccccc5s4)c(=O)c(O)c3C(=O)N12` [Compound A-66], the half-maximal effective concentration (EC50) in the assay with HIV is 38 nM.

Broadly, the IC50 is the concentration that inhibits the measured activity by half. Low readings indicate higher potency, high ones lower potency. For the compound `C[C@@H]1CCO[C@H]2Cn3cc(C(=O)NCC4CCCCCC4)c(=O)c(O)c3C(=O)N12` [Compound A-50], the EC50 in the assay on HIV came out at 32 nM. Moreover, the concentration for half-maximal inhibition (IC50) against HIV integrase is 13.5 nM.

`C[C@@H]1CCO[C@H]2Cn3cc(C(=O)NCc4cccs4)c(=O)c(O)c3C(=O)N12` [Compound A-39]: the half-maximal effective concentration (EC50) in the assay on HIV turned out to be 11 nM. Moreover, the half-maximal inhibitory concentration (IC50) against HIV integrase was found to be 27 nM.

With `C[C@@H]1CCO[C@H]2Cn3cc(C(=O)NCc4ccsc4)c(=O)c(O)c3C(=O)N12` [Compound A-56], the EC50 with HIV was determined as 6.4 nM. In addition, 29.7 nM corresponded to half-maximal inhibition against HIV integrase (IC50).

Compound `C[C@@H]1CCO[C@H]2Cn3cc(C(=O)NCc4ccoc4)c(=O)c(O)c3C(=O)N12` [Compound A-41] had a 50% effective concentration (EC50) in the assay with HIV of 42 nM.

Compound `C[C@@H]1CCO[C@H]2Cn3cc(C(=O)NCCC4CCCCC4)c(=O)c(O)c3C(=O)N12` [Compound A-42] came in with an EC50 with HIV of 46 nM.

Turning to `C[C@@H]1CCO[C@H]2Cn3cc(C(=O)NCc4nccs4)c(=O)c(O)c3C(=O)N12` [Compound A-12], in the assay with HIV, a half-maximal effect (EC50) was put at 32 nM.

Consider `C[C@@H]1CCO[C@H]2Cn3cc(C(=O)NC(c4ccccc4)c4ccccc4)c(=O)c(O)c3C(=O)N12` [Compound A-15], for which a half-maximal response in the assay on HIV (EC50) required 16 nM.

The compound `C[C@@H]1CCO[C@H]2Cn3cc(C(=O)NCc4cc5ccccc5s4)c(=O)c(O)c3C(=O)N12` [Compound A-20] yielded an EC50 in the assay on HIV of 11 nM. Further, the 50% inhibitory concentration (IC50) against HIV integrase is 28.4 nM.

Regarding `C[C@@H]1CCO[C@H]2Cn3cc(C(=O)NNC(=O)c4ccc(F)cc4)c(=O)c(O)c3C(=O)N12` [Compound A-38], the EC50 with HIV is 15 nM.

On to `C[C@@H]1CCO[C@H]2Cn3cc(C(=O)NCCc4cccs4)c(=O)c(O)c3C(=O)N12` [Compound A-65], for which it took 22 nM to reach a half-maximal effect with HIV (EC50). The EC50 values of the last two compounds are within 1.5-fold of each other.
